# Changes are numbered by the printed parent chain.
# Columns and labels:
# Details in all cases: at 1 µM
# [1] = test system: T1, Receptor-type tyrosine-protein kinase FLT3 (Homo sapiens), P36888 [D835H]; assay: (§1) Selectivity interaction (KinomeScan (DiscoverX)) EUB0000229b FLT3
# T1 sequence (whole entry): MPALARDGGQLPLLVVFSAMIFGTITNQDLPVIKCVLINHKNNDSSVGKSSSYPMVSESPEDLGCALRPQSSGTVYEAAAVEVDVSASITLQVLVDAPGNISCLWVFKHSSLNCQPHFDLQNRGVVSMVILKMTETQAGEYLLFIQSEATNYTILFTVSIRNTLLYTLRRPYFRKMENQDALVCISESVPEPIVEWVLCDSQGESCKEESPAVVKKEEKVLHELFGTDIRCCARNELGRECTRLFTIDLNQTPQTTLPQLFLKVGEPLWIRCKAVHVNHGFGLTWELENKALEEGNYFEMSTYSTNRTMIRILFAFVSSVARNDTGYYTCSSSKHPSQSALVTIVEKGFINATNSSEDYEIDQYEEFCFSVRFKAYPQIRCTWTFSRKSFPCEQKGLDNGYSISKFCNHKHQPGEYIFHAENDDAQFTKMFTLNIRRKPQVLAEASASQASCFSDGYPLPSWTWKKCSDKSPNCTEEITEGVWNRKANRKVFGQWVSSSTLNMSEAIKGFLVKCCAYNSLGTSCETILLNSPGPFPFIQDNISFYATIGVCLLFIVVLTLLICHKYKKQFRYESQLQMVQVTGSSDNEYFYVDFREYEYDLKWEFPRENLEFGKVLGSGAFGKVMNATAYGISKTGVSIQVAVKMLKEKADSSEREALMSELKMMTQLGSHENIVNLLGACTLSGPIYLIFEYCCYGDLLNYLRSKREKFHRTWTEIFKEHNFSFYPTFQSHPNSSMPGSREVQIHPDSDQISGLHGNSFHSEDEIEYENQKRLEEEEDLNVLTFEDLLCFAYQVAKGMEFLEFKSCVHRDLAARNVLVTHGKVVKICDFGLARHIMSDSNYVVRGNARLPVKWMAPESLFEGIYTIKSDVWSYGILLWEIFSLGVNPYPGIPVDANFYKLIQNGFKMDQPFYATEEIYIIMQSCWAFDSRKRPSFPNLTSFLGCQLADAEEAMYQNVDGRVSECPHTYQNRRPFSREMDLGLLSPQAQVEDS
# [2] = test system: T2, Receptor-type tyrosine-protein kinase FLT3 (Homo sapiens), P36888 [R834Q]; assay: as §1
# T2 sequence (whole entry): T1 sequence (whole entry) with R834Q, H835D
# [3] = test system: T3, Receptor-type tyrosine-protein kinase FLT3 (Homo sapiens), P36888 [D835V]; assay: as §1
# T3 sequence (whole entry): T1 sequence (whole entry) with H835V
compound,measurement,setting,value
COc1cc(N(C)c2ccnc3ccc(C(F)(F)F)cc23)cc(OC)c1OC,% binding,[1],90%
same,% binding,[2],100%
same,% binding,[3],88%
